{"source": "patent US20260234159A1", "about": "“SMALL MOLECULE TREATMENT OF FATTY LIVER DISEASE AND HCC” (SCANDIEDGE THERAPEUTICS AB, priority 2023, published 2026)", "key": {"[1]": {"test_system": "JNK1/2/3", "test": "Western blot, JNK1/2/3 P54 and p46 isoforms", "type": "cell-based, human", "details": "10 μM, 2 days", "protocol": "HepG2 cells were seeded into a 6-well plate at 400,000 cells per well. After treatment with 10 μM of JNK-IN-5A and its derivatives for two days, lysates were harvested with CelLytic M (C2978, Sigma-Aldrich). […] SDS PAGE were performed using Mini-PROTEAN® TGX™ Precast Gels (Bio-Rad) and transferred using Trans-Blot® Turbo™ Transfer System (Bio-Rad). […] ImageQuantTMLAS 500 (29-0050-63, GE) was used to detect protein bands."}, "[2]": {"test": "In vivo toxicological study in rats: haematology", "design": "species or system rats of the Wistar strain", "protocol": "Forty-two male and forty-two female rats of the Wistar strain were allocated to the study. Three groups of three males and three females were given doses of 30, 100 and 300 mg/kg of target compounds (Table 8). The vehicle was 1.5 w/w % HPMC, 1.5 w/w % PS80 in 10 mM PBS, pH 7 and dose volume were 5 mL/kg. The animals were acclimatised at least 14 day prior to the study and exposed to a 12 hours light, 12 hours dark light cycle. The formulations were administered via oral gavage. Administration occurred once daily in the morning for seven consecutive days. Blood for scheduled haematology and plasma chemistry were taken at necropsy. For plasma chemistry, 0.6 ml blood (lithium heparin) per animal and for haematology, 0.5 ml blood (K2EDTA) per animal. The blood and plasma were analysed using Exigo analyzer and Vetscan equipment. Blood was analysed within 60 min of sampling. On the morning of analysis, the Exigo analyzer was checked against a reference sample provided by the manufacturer, and a control sample analysis cycle was performed (Table 9)."}, "[3]": {"details": "female, 30 mg/kg oral daily 7 d"}, "[4]": {"details": "female, 100 mg/kg oral daily 7 d"}, "[5]": {"details": "female, 300 mg/kg oral daily 7 d"}}, "data": [{"smiles": "N#Cc1c(NC(=O)c2cccc3ccccc23)sc2c1CCN(C(=O)Nc1ccccc1OC(F)(F)F)C2", "note": "[PKL-A159]", "values": [{"measurement": "JNK1/2/3 p46 expression", "setting": "[1]", "result": "not significantly altered"}, {"measurement": "GRAN", "setting": "[2]; [3]", "result": "0.80 10^9/l"}, {"measurement": "HCT", "setting": "[2]; [3]", "result": 40.3, "unit": "%"}, {"measurement": "HGB", "setting": "[2]; [3]", "result": 14.4, "unit": "g/dL"}, {"measurement": "LYM", "setting": "[2]; [3]", "result": "4.9 10^9/l"}, {"measurement": "MCH", "setting": "[2]; [3]", "result": 19.4, "unit": "pg"}, {"measurement": "MCHC", "setting": "[2]; [3]", "result": 35.7, "unit": "g/dL"}, {"measurement": "MCV", "setting": "[2]; [3]", "result": 54.5, "unit": "fL"}, {"measurement": "MONO", "setting": "[2]; [3]", "result": "0.13 10^9/l"}, {"measurement": "PLT", "setting": "[2]; [3]", "result": "1028 10^9/l"}, {"measurement": "RBC", "setting": "[2]; [3]", "result": "7.39 10^12/l"}, {"measurement": "RDW %", "setting": "[2]; [3]", "result": 14.1, "unit": "%"}, {"measurement": "WBC", "setting": "[2]; [3]", "result": "5.9 10^9/l"}, {"measurement": "GRAN", "setting": "[2]; [4]", "result": "0.77 10^9/l"}, {"measurement": "HCT", "setting": "[2]; [4]", "result": 41.2, "unit": "%"}, {"measurement": "HGB", "setting": "[2]; [4]", "result": 14.5, "unit": "g/dL"}, {"measurement": "LYM", "setting": "[2]; [4]", "result": "5.8 10^9/l"}, {"measurement": "MCH", "setting": "[2]; [4]", "result": 18.9, "unit": "pg"}, {"measurement": "MCHC", "setting": "[2]; [4]", "result": 35.2, "unit": "g/dL"}, {"measurement": "MCV", "setting": "[2]; [4]", "result": 53.8, "unit": "fL"}, {"measurement": "MONO", "setting": "[2]; [4]", "result": "0.10 10^9/l"}, {"measurement": "PLT", "setting": "[2]; [4]", "result": "994 10^9/l"}, {"measurement": "RBC", "setting": "[2]; [4]", "result": "7.66 10^12/l"}, {"measurement": "RDW %", "setting": "[2]; [4]", "result": 14.6, "unit": "%"}, {"measurement": "WBC", "setting": "[2]; [4]", "result": "6.7 10^9/l"}, {"measurement": "GRAN", "setting": "[2]; [5]", "result": "0.93 10^9/l"}, {"measurement": "HCT", "setting": "[2]; [5]", "result": 41.1, "unit": "%"}, {"measurement": "HGB", "setting": "[2]; [5]", "result": 14.5, "unit": "g/dL"}, {"measurement": "LYM", "setting": "[2]; [5]", "result": "5.3 10^9/l"}, {"measurement": "MCH", "setting": "[2]; [5]", "result": 19.4, "unit": "pg"}, {"measurement": "MCHC", "setting": "[2]; [5]", "result": 35.2, "unit": "g/dL"}, {"measurement": "MCV", "setting": "[2]; [5]", "result": 55.2, "unit": "fL"}, {"measurement": "MONO", "setting": "[2]; [5]", "result": "0.17 10^9/l"}, {"measurement": "PLT", "setting": "[2]; [5]", "result": "808 10^9/l"}, {"measurement": "RBC", "setting": "[2]; [5]", "result": "7.45 10^12/l"}, {"measurement": "RDW %", "setting": "[2]; [5]", "result": 14.4, "unit": "%"}, {"measurement": "WBC", "setting": "[2]; [5]", "result": "6.4 10^9/l"}, {"measurement": "GRAN", "setting": "[2]; male, 30 mg/kg oral daily 7 d", "result": "1.03 10^9/l"}, {"measurement": "HCT", "setting": "[2]; male, 30 mg/kg oral daily 7 d", "result": 40.9, "unit": "%"}, {"measurement": "HGB", "setting": "[2]; male, 30 mg/kg oral daily 7 d", "result": 14.5, "unit": "g/dL"}, {"measurement": "LYM", "setting": "[2]; male, 30 mg/kg oral daily 7 d", "result": "2.8 10^9/l"}, {"measurement": "MCH", "setting": "[2]; male, 30 mg/kg oral daily 7 d", "result": 19.9, "unit": "pg"}, {"measurement": "MCHC", "setting": "[2]; male, 30 mg/kg oral daily 7 d", "result": 35.4, "unit": "g/dL"}, {"measurement": "MCV", "setting": "[2]; male, 30 mg/kg oral daily 7 d", "result": 56.3, "unit": "fL"}, {"measurement": "MONO", "setting": "[2]; male, 30 mg/kg oral daily 7 d", "result": "0.10 10^9/l"}, {"measurement": "PLT", "setting": "[2]; male, 30 mg/kg oral daily 7 d", "result": "1117 10^9/l"}, {"measurement": "RBC", "setting": "[2]; male, 30 mg/kg oral daily 7 d", "result": "7.26 10^12/l"}, {"measurement": "RDW %", "setting": "[2]; male, 30 mg/kg oral daily 7 d", "result": 15.1, "unit": "%"}, {"measurement": "WBC", "setting": "[2]; male, 30 mg/kg oral daily 7 d", "result": "3.9 10^9/l"}, {"measurement": "GRAN", "setting": "[2]; male, 100 mg/kg oral daily 7 d", "result": "1.43 10^9/l"}, {"measurement": "HCT", "setting": "[2]; male, 100 mg/kg oral daily 7 d", "result": 42.4, "unit": "%"}, {"measurement": "HGB", "setting": "[2]; male, 100 mg/kg oral daily 7 d", "result": 14.9, "unit": "g/dL"}, {"measurement": "LYM", "setting": "[2]; male, 100 mg/kg oral daily 7 d", "result": "7.1 10^9/l"}, {"measurement": "MCH", "setting": "[2]; male, 100 mg/kg oral daily 7 d", "result": 19.9, "unit": "pg"}, {"measurement": "MCHC", "setting": "[2]; male, 100 mg/kg oral daily 7 d", "result": 35.3, "unit": "g/dL"}, {"measurement": "MCV", "setting": "[2]; male, 100 mg/kg oral daily 7 d", "result": 56.4, "unit": "fL"}, {"measurement": "MONO", "setting": "[2]; male, 100 mg/kg oral daily 7 d", "result": "0.23 10^9/l"}, {"measurement": "PLT", "setting": "[2]; male, 100 mg/kg oral daily 7 d", "result": "974 10^9/l"}, {"measurement": "RBC", "setting": "[2]; male, 100 mg/kg oral daily 7 d", "result": "7.51 10^12/l"}, {"measurement": "RDW %", "setting": "[2]; male, 100 mg/kg oral daily 7 d", "result": 15.4, "unit": "%"}, {"measurement": "WBC", "setting": "[2]; male, 100 mg/kg oral daily 7 d", "result": "8.7 10^9/l"}, {"measurement": "GRAN", "setting": "[2]; male, 300 mg/kg oral daily 7 d", "result": "1.00 10^9/l"}, {"measurement": "HCT", "setting": "[2]; male, 300 mg/kg oral daily 7 d", "result": 42.4, "unit": "%"}, {"measurement": "HGB", "setting": "[2]; male, 300 mg/kg oral daily 7 d", "result": 14.8, "unit": "g/dL"}, {"measurement": "LYM", "setting": "[2]; male, 300 mg/kg oral daily 7 d", "result": "4.6 10^9/l"}, {"measurement": "MCH", "setting": "[2]; male, 300 mg/kg oral daily 7 d", "result": 19.6, "unit": "pg"}, {"measurement": "MCHC", "setting": "[2]; male, 300 mg/kg oral daily 7 d", "result": 35.1, "unit": "g/dL"}, {"measurement": "MCV", "setting": "[2]; male, 300 mg/kg oral daily 7 d", "result": 55.8, "unit": "fL"}, {"measurement": "MONO", "setting": "[2]; male, 300 mg/kg oral daily 7 d", "result": "0.10 10^9/l"}, {"measurement": "PLT", "setting": "[2]; male, 300 mg/kg oral daily 7 d", "result": "1200 10^9/l"}, {"measurement": "RBC", "setting": "[2]; male, 300 mg/kg oral daily 7 d", "result": "7.59 10^12/l"}, {"measurement": "RDW %", "setting": "[2]; male, 300 mg/kg oral daily 7 d", "result": 15.3, "unit": "%"}, {"measurement": "WBC", "setting": "[2]; male, 300 mg/kg oral daily 7 d", "result": "5.7 10^9/l"}]}]}
